Experiments:
rats = assay: Rat sleep parameters by EEG/EMG telemetry (WAKE, SWS, REM); format: in vivo
Experimental: In the above experiment rats implanted with a two channel telemetry transmitter to record EEG and EMG simultaneously were dosed with either Merck 1 (nanosuspension 3 mg/kg; 5 ml/kg; p.o.) or vehicle (1.4% W/V hydroxypropylmethylcellulose 0.2% W/V sodium docusate; p.o.) at light on-set in a cross-over design. EEG and EMG recordings were collected for at least 12 hours. Data was converted with LoadDSI.s2s and BatchEEGpower2.s2s scripts (CED) and every 12 s epoch was automatically classified as either WAKE, SWS or REM (PS) sleep with Modulus analysis of sleep v7.xlt. Statistical analysis was done with Student's t-test for paired data. REM latency was defined as the first>1 min REM bout.
Similar data is shown for D-amino acid oxidase inhibitor 4H-furo[3,2-b]pyrrole-5-carboxylic acid (Merck 2) in FIG. 3 and D-serine in FIG. 4 at 100 mg/kg. In this experiment rats implanted with a two channel telemetry transmitter to record EEG and EMG simultaneously were dosed with either drug (30, 100, 300 mg/kg d-serine or 25 mg/kg Merck 2) or vehicle (water or 0.5% MC) intraperitoneally at light on-set in a cross-over design. EEG and EMG recordings were collected for at least 12 hours. Data was converted with LoadDSI.s2s and BatchEEGpower2.s2 s scripts (CED) and every 12 s epoch was automatically classified as either WAKE, SWS or REM (PS) sleep with Modulus analysis of sleep v5 REM incl entries.XLT. Preliminary statistical analysis was done with Student's t-test for paired data. Significance level p<0.05.
(§1) Rats implanted with a two channel telemetry transmitter to record EEG and EMG simultaneously were dosed acutely with either Merck 3 (5 mg/kg; i.p.) or vehicle (distilled water; i.p.) at light onset in a cross-over design. EEB and EMG recordings were collected for at least 12 hours. Data was converted with LoadDSI.s2s and BatchEEGpower2.s2s scripts (CED) and every 12 s epoch was automatically classified as either WAKE, SWS or REM (PS) sleep and Modulus analysis of sleep v7 REM incl entries and tot.xlt. Preliminary statistical analysis was done with Student's t-test for paired data. Significance level p<0.05.
as §1, with “3 (25” for “3 (5”, “design. EEG” for “design. EEB”, “sleep with” for “sleep and”, “sleep v6” for “sleep v7”

[1] = 30 mg/kg, cited from earlier work
[2] = 25 mg/kg i.p., first four hours

O=C(NCC1(CC2CC2)CCC(S(=O)(=O)CC2CC2)CC1)c1ccc(Cl)cc1Cl (centres unmarked) [Merck 1, 2,4-dichloro-N-(4-cyclopropylmethane-sulfonyl-1-cyclopropylmethylcyclohexylmethyl)benzamide]
REM latency (rats; 3 mg/kg p.o.): significant increase | decrease in REM sleep (mean±SEM) (rats; 3 mg/kg p.o., significant): 54±7% | decrease in the number of entries into REM (rats; 3 mg/kg p.o., significant): 45±9% | decrease in the number of entries into SWS (rats; 3 mg/kg p.o., significant): 26±8% | increase in time spent in WAKE (rats; 3 mg/kg p.o., trend, p=0.06): 93±43%

O=C(O)c1cc2sccc2[nH]1 [Merck 3, 4H-thieno[3,2-b]pyrrole-5-carboxylic acid]
latency to REM sleep (rats; 5 mg/kg i.p.): significantly increased | bout duration of SWS (rats; 5 mg/kg i.p., 7 to 12 h time period): significantly reduced | time spent awake (rats; 5 mg/kg i.p., first four hours after dosing): significantly increased | latency to REM (rats; 25 mg/kg i.p.): unaltered | latency to SWS (rats; 25 mg/kg i.p.): unaltered | wakefulness compared to the control (rats; 25 mg/kg i.p., first 4 h): significantly more awake | time spent in REM (rats; [2]): decrease | time spent in SWS (rats; [2]): decrease

O=C(N[C@@H](c1ccccc1)[C@@H]1CCCCN1)c1cccc(C(F)(F)F)c1Cl [SSR504734]
sleep parameters 24 h after drug challenge ([1]; 24 h after drug challenge): returned to control levels | duration of wakefulness ([1]; effect only for the first two hours): increased | latency time to onset of the first episode of PS [1]: increased latency time | paradoxical sleep (PS) [1]: long-lasting reduction

— patent publication US20110269782A1, “USE OF NMDA ACTIVITY ENHANCERS TO TREAT HYPERSOMNIA, REDUCED WAKEFULNESS OR REDUCED VIGILANCE” (priority 2008, published 2011)
